Measurements from patent US5506217A, “Phosphonates as anti-cancer agents” (The University of British Columbia, priority 1994, dated 1996).

Experiments:
L1210 tumor cells = assay: colonogenic cell survival assay; assay type: cell-based; conditions: Mus musculus, 120 h, L1210, read-out: Colonies formed after 5 days (% of control)
Experimental: (§1) Inhibition of colony formation in soft agar medium (colonogenic cell survival assay) is a more rigorous and direct measurement of cell kill or growth inhibition, and reflects the anti-cancer activity of the test compound. Briefly, tumor cells were cultured in petri dishes in methylcellulose, with or without a phosphonate test compound, and the number of colonies formed during a 5-day incubation period were counted.
The effectiveness of S-thioalkylphosphonate on the growth of a lymphoma cell line was also investigated. L1210 is a mouse B-Cell tumor (lymphoma), was tested in soft agar for susceptibility to the cytotoxic action of thioalkylphosphonate.

WEHI-3B tumor cells [1] = assay: colonogenic cell survival assay; assay type: cell-based; conditions: Mus musculus, WEHI3B, 120 h, WEHI-3B, read-out: Colonies formed after 5 days (% of control)
Experimental: as §1
Table 17 tabulates data obtained with two differrent phosphonate analogs using a colonogenic assay. Colonogenic assay is one of the most trusted tests for determination of effectiveness of an anti-cancer agent. The test is based on the formation of tumor colonies in vitro in a methyl cellulose or soft agar medium. The following results were obtained with the formation of colonies in methyl cellulose medium after five days in the presence or absence of four phosphonate analogs, two with a thioalkyl chain and two with an alkyloxy chain.

WEHI-3B tumor = WEHI-3B tumor growth in BALB/C mice; assay type: in vivo; conditions: for Tumor volume in cm^3: 500 μg (approx. 25 mg/Kg) daily IM
Experimental: After 3 days one group (n=5) of mice received 500 μg (approximately 25 mg/Kg body weight) of the phosphonate compound of the following formula daily by intramuscular (IM) injection. The size of the resulting tumor was measured using a caliper: [drawing 17]

P388 tumor cells = assay: colonogenic cell survival assay; assay type: cell-based; conditions: Mus musculus, 120 h, P388, read-out: Colonies formed after 5 days (% of control)
Experimental: as §1
The efficacy of 4-hexadecylthio-3-methoxybutane phosphonocholine on the growth of a mouse […] tumor was evaluated. The P388 cell line was cultured in a soft agar in the presence and absence of various concentrations of thioalkylphosphonate for 5 days, the number of tumor colonies formed during this period of time was registered.

WEHI-3B tumor cells [2] = assay: 3H-thymidine incorporation assay; assay type: cell-based; conditions: Mus musculus, WEHI3B, read-out: Thymidine uptake (% of control)
Experimental: (§2) Experiments were performed using a number of different rumor cell lines. Tumor cells were cultured in RPMI-1640 medium supplemented with 10% fetal bovine serum, penicillin (50 units/mL), streptomycin (50 μg/mL) and mercaptoethanol (5 μg/mL) in an atmosphere of 5% CO2. The cells were passaged weekly by serial 1/10 to 1/10,000 dilutions. The cell viability and growth were constantly monitored by staining with trypan blue exclusion dye or the incorporation of tritiated thymidine.
(§3) Inhibition of ^3 H-thymidine incorporation into the DNA of cells by a test compound is an indirect measurement of cell kill or growth inhibition, and reflects the anti-cancer activity of the compound.
Tumor cells (2×104 ^4 cells/well) were placed in 200 μL of medium in 96-well plastic microtiter plates; a further 5 μL of medium either with or without phosphonate was added. […] The cells were then harvested using a Brandel cell harvester (model M-12) and collected on Whatman glass microfilters. The radioactivity associated with the filters was quantified in a liquid scintillation counter, and the amount of ^3 H-thymidine incorporated into tumor cells treated with the phosphonate compound was calculated as a percentage of the amount of ^3 H-thymidine incorporated into untreated tumor cells.
The biological activities of 4-hexadecylthio-3(S ) -3-methoxybutane-l-phosponocholine and its enantiomer 4-hexadecylthio-3(R)-3-methoxybutane-1-phosphonocholine were studied on several cancer cell lines. […] The cell viability, was determined as percent[^3 H]thymidine uptake into the cell DNA. The following results are mean of five samples ± S.D.

C-41 tumor cells = assay: 3H-thymidine incorporation assay; assay type: cell-based; conditions: Homo sapiens, read-out: Thymidine uptake (% of control)
Experimental: as §2, §3
Tumor cells (2×104 ^4 cells/well) were placed in 200 μL of medium in 96-well plastic microtiter plates; a further 5 μL of medium either with or without phosphonate was added. After incubation for 24, 48 or 72 hours at 37° C. in a humidified atmosphere containing 5% CO2, the wells were pulsed with 0.1 μCi of ^3 H-thymidine for an additional 24 hours. The cells were then harvested using a Brandel cell harvester (model M-12) and collected on Whatman glass microfilters. The radioactivity associated with the filters was quantified in a liquid scintillation counter, and the amount of ^3 H-thymidine incorporated into tumor cells treated with the phosphonate compound was calculated as a percentage of the amount of ^3 H-thymidine incorporated into untreated tumor cells.
It has been discovered that a phosphonate compound of the following structure: [drawing 21] inhibits thymidine incorporation into DNA of a human cervical carcinoma (C-41 ) cell line. This effect is indicative of the anti-cancer activity of the above compound.

[3] = tested on: Lewis lung carcinoma cells; assay: LLC tumor growth in BALB/C mice; assay type: in vivo; conditions: for Tumor volume (mm^3): 50 mg/day orally once a day from day 3
Experimental: BALB/C mice were injected with […] lung carcinoma cells under the skin at the back. Three days after injection of the rumor cells, treatment with the phosphonate shown above (compound VI) (50 mg/day orally once a day) was initiated in one group of mice, while a second group of mice received only the carrier, mucilage of tragacanth.

Question: Which results are given for `CCCCCCCCCCCCCCCCOCC(CP(=O)([O-])OCC[N+](C)(C)C)OC` (centres unmarked) [compound VII]?
Answer: activity at 1.25 µM (L1210 tumor cells; 1.25 μM): 91 ± 7%; activity at 2.5 µM (L1210 tumor cells; 2.5 μM): 80 ± 11%; activity at 5 µM (L1210 tumor cells; 5 μM): 55 ± 4%; activity at 10 µM (L1210 tumor cells; 10 μM): 42 ± 5%; activity at 20 µM (L1210 tumor cells; 20 μM): 22 ± 3%; activity at 40 µM (L1210 tumor cells; 40 μM): 14 ± 5%; activity at 1.25 µM (WEHI-3B tumor cells [1]; 1.25 μM): 88%; activity at 2.5 µM (WEHI-3B tumor cells [1]; 2.5 μM): 60%; activity at 5 µM (WEHI-3B tumor cells [1]; 5 μM): 48%; activity at 10 µM (WEHI-3B tumor cells [1]; 10 μM): 34%; activity at 20 µM (WEHI-3B tumor cells [1]; 20 μM): 13%; activity at 40 µM (WEHI-3B tumor cells [1]; 40 μM): 2%; effect on tumor growth (in words) (WEHI-3B tumor; 25 mg/Kg body weight per day, intramuscularly): delayed the onset of tumor growth and reduced the tumor growth significantly; Tumor volume in cm^3 (WEHI-3B tumor; day 3 after implantation): 0.000 ± 0.000 cm^3; Tumor volume in cm^3 (WEHI-3B tumor; day 15 after implantation): 0.000 ± 0.000 cm^3; Tumor volume in cm^3 (WEHI-3B tumor; day 17 after implantation): 0.000 ± 0.000 cm^3; Tumor volume in cm^3 (WEHI-3B tumor; day 20 after implantation): 0.036 ± 0.010 cm^3; Tumor volume in cm^3 (WEHI-3B tumor; day 22 after implantation): 0.117 ± 0.017 cm^3; Tumor volume in cm^3 (WEHI-3B tumor; day 24 after implantation): 0.172 ± 0.025 cm^3; activity at 1.25 µM (P388 tumor cells; 1.25 μM): 88 ± 6%; activity at 2.5 µM (P388 tumor cells; 2.5 μM): 79 ± 8%; activity at 5 µM (P388 tumor cells; 5 μM): 61 ± 7%; activity at 10 µM (P388 tumor cells; 10 μM): 56 ± 7%; activity at 20 µM (P388 tumor cells; 20 μM): 29 ± 4%; activity at 40 µM (P388 tumor cells; 40 μM): 16 ± 2%

Question: With `CCCCCCCCCCCCCCCCCCOCC(CCP(=O)([O-])OCC[N+](C)(C)C)OC` (centres unmarked) [compound VI] as the compound, how does the activity at 1.25 µM (WEHI-3B tumor cells [2]; 24 h, Day 1) read?
Answer: 95%

Question: And the activity at 2.5 µM (WEHI-3B tumor cells [2]; 24 h, Day 1)?
Answer: 72%

Question: And the activity at 5 µM (WEHI-3B tumor cells [2]; 24 h, Day 1)?
Answer: 34%

Question: What about the activity at 10 µM (WEHI-3B tumor cells [2]; 24 h, Day 1) of the same compound?
Answer: 18%

Question: What about the activity at 20 µM (WEHI-3B tumor cells [2]; 24 h, Day 1) of the same compound?
Answer: 8%

Question: What about the activity at 40 µM (WEHI-3B tumor cells [2]; 24 h, Day 1) of the same compound?
Answer: 3%

Question: And the activity at 1.25 µM (WEHI-3B tumor cells [2]; 48 h, Day 2)?
Answer: 84%

Question: What about the activity at 2.5 µM (WEHI-3B tumor cells [2]; 48 h, Day 2) of the same compound?
Answer: 67%

Question: What about the activity at 5 µM (WEHI-3B tumor cells [2]; 48 h, Day 2) of the same compound?
Answer: 22%

Question: And the activity at 10 µM (WEHI-3B tumor cells [2]; 48 h, Day 2)?
Answer: 13%

Question: What about the activity at 20 µM (WEHI-3B tumor cells [2]; 48 h, Day 2) of the same compound?
Answer: 2%

Question: What about the activity at 40 µM (WEHI-3B tumor cells [2]; 48 h, Day 2) of the same compound?
Answer: 2%

Question: What about the activity at 1.25 µM (WEHI-3B tumor cells [2]; 72 h, Day 3) of the same compound?
Answer: 77%

Question: And the activity at 2.5 µM (WEHI-3B tumor cells [2]; 72 h, Day 3)?
Answer: 54%

Question: And the activity at 5 µM (WEHI-3B tumor cells [2]; 72 h, Day 3)?
Answer: 12%

Question: What about the activity at 10 µM (WEHI-3B tumor cells [2]; 72 h, Day 3) of the same compound?
Answer: 10%

Question: And the activity at 20 µM (WEHI-3B tumor cells [2]; 72 h, Day 3)?
Answer: 1%

Question: And the activity at 40 µM (WEHI-3B tumor cells [2]; 72 h, Day 3)?
Answer: 2%

Question: And the activity at 2.5 µM (C-41 tumor cells; C4-1, 2.5 μM)?
Answer: 88%

Question: And the activity at 5 µM (C-41 tumor cells; C4-1, 5 μM)?
Answer: 63%

Question: And the activity at 10 µM (C-41 tumor cells; C4-1, 10 μM)?
Answer: 42%

Question: What about the activity at 20 µM (C-41 tumor cells; C4-1, 20 μM) of the same compound?
Answer: 41%

Question: And the activity at 40 µM (C-41 tumor cells; C4-1, 40 μM)?
Answer: 16%

Question: And the “Tumor volume (mm^3)” value ([3]; day 0 after tumor injection)?
Answer: 0 mm^3

Question: And the “Tumor volume (mm^3)” value ([3]; day 7 after tumor injection)?
Answer: 0 mm^3

Question: What about the “Tumor volume (mm^3)” value ([3]; day 10 after tumor injection) of the same compound?
Answer: 0 mm^3

Question: What about the “Tumor volume (mm^3)” value ([3]; day 17 after tumor injection) of the same compound?
Answer: 100 mm^3

Question: And the “Tumor volume (mm^3)” value ([3]; day 18 after tumor injection)?
Answer: 175 mm^3

Question: And the “Tumor volume (mm^3)” value ([3]; day 20 after tumor injection)?
Answer: 252 mm^3

Question: What about the “Tumor volume (mm^3)” value ([3]; day 22 after tumor injection) of the same compound?
Answer: 500 mm^3

Question: What about the “retardation of tumor growth” value ([3]; versus untreated animals, 50 mg/day orally once a day) of the same compound?
Answer: approximately 6 days
